In brackets after ≈: the same amount, converted by molar mass.
Key:
[1] = In vitro drug release in PBS using a dialysis membrane; assay type: physicochemical; conditions: HGC 3.0 wt %, drug 2.0 wt % formulations and drug controls
Protocol: The in vitro drug release profiles of the thermogel formulations were examined in PBS (pH 7.4) using a dialysis membrane. […] Then, the dialysis bags were immersed in 50 mL of PBS and incubated in a shaking water bath (SI-600R, Jeio Tech, Seoul, Korea) at 37° C. and 100 rpm or less.
After incubation, 10 ml of the release medium was taken out and the same amount of fresh medium was added again. The collected samples were analyzed by UV-Vis measurement. The DEX release profile was determined by measuring the UV absorbance of DEX at 242 nm. The experiment was performed in triplicate and data are expressed as mean±SD.
023 microspheres loaded with dexamethasone were mixed with 4 wt % of HGC hydrogel. An in vitro drug release test was conducted in a PBS (pH 7.4, 50 ml) environment in the same manner as in Example 4. Sampling was performed at days 0, 0.5, 1, 2, 4, 7, 14, 21, 28, and 30.
Dexamethasone-loaded 061 or 062 microspheres were mixed with 4 wt % of HGC hydrogel, and an in vitro drug release test therefor was conducted in the same manner as the test for the 023.

physchem = test: physchem
Protocol: Changes in water solubility of dexamethasone (DEX) with changes in HGC concentration were analyzed. An excessive amount of DEX was added to 3 mL of an aqueous solution of HGC (PBS, HGC concentration=0 to 4%, w/v). The samples were then stirred for 30 minutes and incubated in a shaking water bath (100 rpm, 37° C.) for 24 hours. All the samples were filtered through a syringe filter (0.8 μm) to remove precipitates and then analyzed using a UV-visible spectrophotometer (V-730, JASCO, Korea). The solubility value of DEX was determined using a standard curve of various DEX concentrations obtained at 242 nm. The test was repeated three times.

Row | Compound | drug release behavior (Example 8-2) [1] | increase of solubility of dexamethasone (physchem) | solubility at 24 h (physchem; 37 °C, aqueous with cosolvent or surfactant or cyclodextrin, thermodynamic from solid) | solubility of dexamethasone in PBS (physchem; HGC 0 wt %, 37° C., 24 hours)
1 | C[C@@H]1C[C@H]2[C@@H]3CCC4=CC(=O)C=C[C@]4(C)[C@@]3(F)[C@@H](O)C[C@]2(C)[C@@]1(O)C(=O)COP(=O)([O-])[O-].[Na+].[Na+] [DSP, DEX phosphate disodium salt] | completely released the drug quickly within a few hours |  |  | 
2 | C[C@@H]1C[C@H]2[C@@H]3CCC4=CC(=O)C=C[C@]4(C)[C@@]3(F)[C@@H](O)C[C@]2(C)[C@@]1(O)C(=O)CO [DEX, Dexamethasone] |  | about 4 times | 221 µg/mL (≈ 563 µM) | 64 µg/mL

Source: patent US20250135009A1, “INTRATYMPANIC DRUG CONTROLLED RELEASE-TYPE FORMULATION COMPRISING N-ACYLATED GLYCOL CHITOSAN” (The Industry & Academic Cooperation in Chungnam National …, priority 2021, published 2025)
